Six compounds from US6410545B1, “Lipid lowering quinazoline dietary supplement composition” (Parker Hughes Institute, priority 1998, dated 2002) can be followed below.

One assay relates to apo e−/− mice. As to the kind of experiment: Serum total cholesterol in apolipoprotein E deficient mice. The assay is classed as in vivo. As to conditions: apo e−/− (C57B1/6) mice, Western diet two weeks, then drug 1 week at 40 mg/kg/day. On the procedure:
Three- to four-week old apolipoprotein E deficient (apo E^−/−) mice were the progeny of breeding pairs of apo E knockout (apo EKO) mice obtained from Jackson Labs. (Bar Harbor, Me., USA). Mice were fed either regular rodent chow (5% fat and 0% cholesterol) (Teklad-LM 485, Harlan Teklad, Madison, Wis., USA), the Paigen's cocoa butter diet, or the Western diet (21.22% fat and 0.2% cholesterol) (Harlan Teklad, Madison, Wis., USA) for two weeks prior to treatment.
(§1) Animals were treated with test compounds by intraperitoneal injection daily for 7 days. A range of doses was administered. Control animals received vehicle alone. The effect of quinazoline derivatives on total cholesterol, LDL, HDL, liver enzymes, and glucose was analyzed. The mice tissues were also examined histologically.
(§2) Serum total cholesterol was measured enzymatically using the cholesterol kit from Sigma Chemical Co. (St. Louis, Mo., USA). For liver tissue lipid measurements, lipids were extracted from homogenized hepatic tissues using the method of Bligh and Dyer (Bligh, et al., Can. J. Biochem. Phys. 1959, 37:911-917). One gram of liver tissue was homogenized in 1 ml of distilled water and extracted with 4 ml of chloroform/methanol (1:1, v/v). The chloroform phase containing the lipids was evaporated under a stream of nitrogen, the lipids dissolved in 100 μL of isopropanol, and subjected to cholesterol determination as described above. Triglyceride (TG) contents were determined using the TG kit from Sigma Chemical Co.
On regular rodent chow, the serum total cholesterol level of apo e^−/− mice was 836±57 mg/dL (n=47). After one week therapy with 8 mg/kg/day WHI-P164 (n=12), the mean serum total cholesterol level was reduced to 551±29 mg/dL (p=0.02).
When challenged with a cholesterol-rich diet, these animals developed frank hypercholesterolemia due to delayed clearance of intestinal chylomicrons which shuttle the dietary cholesterol from the intestine to the liver. In the present study, all of the 46 ApoE-deficient mice that were fed Western diet (14) became severely hypercholesterolemic with a mean serum total cholesterol level of 1491±59 mg/dL. One week WHI-P164 therapy reduced the mean serum total cholesterol level of hypercholesterolemic apo e^−/− mice to 1194±84 mg/dL (p=O.006) at a dose level of 8 mg/kg/day (n=19) and to 876±57 mg/dL (p<0.0001) at a dose level of 40 mg/kg/day (n=17) (Table 3).

Assay [1] relates to hypercholesterolemic C57B⅙ mice. As to the kind of experiment: Serum total cholesterol in hypercholesterolemic C57B⅙ mice on Paigen's cocoa butter diet. As to conditions: apo e+/+ C57B1/6 mice, cocoa butter diet two weeks, then drug 1 week at 1.6 mg/kg/day i.p. The assay is classed as in vivo. The procedure: Three- to four-week old C57B⅙ male mice (Taconic, Germantown, N.Y., USA) were kept in micro-isolator cages on a 12-hour day/night cycle and fed the Paigen's cocoa butter diet (15.8% fat, 1.25% cholesterol, and 0.5% sodium cholate) (Harlan Teklad, Madison, Wis., USA) for two weeks prior to initiation of lipid lowering therapy. Paigen's diet is described in Nishina et.al., 1993, J. Lipid Res. 34: 1413-1422.
as §1, §2
A high cholesterol and high fat diet was used to induce hypercholesterolemia in C57B⅙mice, using the methods described by Paigen, et al. (Nishina, et al., 1993, J. Lipid Res. 34:1413-1422) and as described for Example 1.

The structures appear in SMILES notation.

As for `COc1cc2ncnc(Nc3ccccc3O)c2cc1OC` [WHI-P132, 4-(2′-Hydroxylphenyl)-amino-6,7-dimethoxyquinazoline], the Serum total cholesterol with apo e−/− mice turned out to be 1774 ± 61 mg/dL. Same read-out and setting: next, `COc1cc2ncnc(Nc3ccc(O)c(Br)c3)c2cc1OC` [WHI-P154, 4-(3′-Bromo-4′-hydroxylphenyl)-amino-6,7-dimethoxyquinazoline]: 1492 ± 110 mg/dL. With `COc1cc2ncnc(Nc3ccc(O)c(Cl)c3)c2cc1OC` [WHI-P197, 4-(3′-Chloro-4′-hydroxylphenyl)-amino-6,7-dimethoxyquinazoline], the Serum total cholesterol in assay [1] amounted to 372 ± 20 mg/dL; in the assay with apo e−/− mice, 1621 ± 146 mg/dL. `COc1cc2ncnc(Nc3ccc(O)cc3)c2cc1OC` [WHI-P131, 4-(4′-Hydroxylphenyl)-amino-6,7-dimethoxyquinazoline]: the figures for the Serum total cholesterol (in assay [1]; in the assay on apo e−/− mice) were 433 ± 20 mg/dL and 1532 ± 77 mg/dL, respectively. The like results for `COc1cc2ncnc(Nc3cc(Br)c(O)c(Br)c3)c2cc1OC` [WHI-P97, 4-(3′,5′-Dibromo-4′-hydroxylphenyl)-amino-6,7-dimethoxyquinazoline] were, in that order, 413 ± 18 mg/dL and 1129 ± 46 mg/dL. The like results for `COc1cc2ncnc(Nc3ccc(C)c(Br)c3)c2cc1OC` [WHI-P111, 4-(3′-Bromo-4′-methylphenyl)-amino-6,7-dimethoxyquinazoline] were, in that order, 406 ± 11 mg/dL and 1425 ± 92 mg/dL.
